# Data: PubChem BioAssay (NCI)
# Where “and” joins values, the source holds several entries; their conditions need not be identical. Equal entries are not always repeated.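 48-hour exposure; five concentrations; linearly interpolated endpoints. Here, GI50 denotes the concentration required for 50% inhibition of growth. TGI: concentration producing complete growth inhibition.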
# Assays:
# Assay in all cases: NCI anticancer screen, dose series, 48 h
# CAKI-1 renal = tested on: CAKI-1 renal
# SK-MEL-5 melanoma = tested on: SK-MEL-5 melanoma
# SN12C renal = tested on: SN12C renal
# SNB-19 CNS = tested on: SNB-19 CNS
# IGROV1 ovarian = tested on: IGROV1 ovarian
# MOLT-4 leukemia = tested on: MOLT-4 leukemia
# U251 CNS = tested on: U251 CNS
# SR leukemia = tested on: SR leukemia
# NCI-H460 lung = tested on: NCI-H460 lung
# NCI-H23 lung = tested on: NCI-H23 lung
SMILES,GI50 (CAKI-1 renal),TGI (CAKI-1 renal),GI50 (SK-MEL-5 melanoma),TGI (SK-MEL-5 melanoma),GI50 (SN12C renal),TGI (SN12C renal),GI50 (SNB-19 CNS),TGI (SNB-19 CNS),GI50 (IGROV1 ovarian),TGI (IGROV1 ovarian),GI50 (MOLT-4 leukemia),TGI (MOLT-4 leukemia),GI50 (U251 CNS),TGI (U251 CNS),GI50 (SR leukemia),TGI (SR leukemia),GI50 (NCI-H460 lung),TGI (NCI-H460 lung),GI50 (NCI-H23 lung),TGI (NCI-H23 lung)
CN(C)C(=O)O[C@H]1CN[C@H](C#Cc2cc3ncnc(Nc4ccc(OCc5cccc(F)c5)c(Cl)c4)c3s2)C1,4.06 µM,> 25 µM,16 µM,> 25 µM,5.64 µM,> 25 µM,> 19.7 µM,> 25 µM,4.61 µM,> 25 µM,4530 nM,> 25 µM,14.7 µM,> 25 µM,5.86 µM,> 25 µM,7.25 µM,> 25 µM,> 25 µM,> 25 µM
c1c[nH]c(CN2CCOCC2)n1,–,> 100 µM,–,> 100 µM,–,> 100 µM,–,> 100 µM,–,> 100 µM,–,> 100 µM,–,> 100 µM,–,> 100 µM,–,> 100 µM,–,> 100 µM
O=C(Nc1ccc(Cl)c(Cl)c1)NS(=O)(=O)c1cnccc1Oc1ccc(F)cc1,2.5 µM,8.23 µM,3.63 µM,13.5 µM,3.38 µM,15.4 µM,4.29 µM,> 100 µM,2.69 µM,8.59 µM,2680 nM,8.58 µM,3.42 µM,37.2 µM,2.55 µM,10.2 µM,3.09 µM,20.1 µM,3.37 µM,24.5 µM
Cc1ccc(-c2nc3nc(-c4ccc(F)cc4)nc(N4CCCNCC4)c3o2)cc1,1.44 µM,2.74 µM,1.75 µM,3.16 µM,1.67 µM,3.13 µM,1.7 µM,3.22 µM,1.59 µM,3.01 µM,1620 nM,3.47 µM,1.33 µM,2.83 µM,0.256 µM,0.813 µM,1.79 µM,3.53 µM,1.82 µM,3.47 µM
CN(C)CCNC(=O)Cn1ccc(=O)c2c([N+](=O)[O-])cccc21,–,> 100 µM,–,> 100 µM,–,> 100 µM,–,> 100 µM,–,> 100 µM,–,> 100 µM,–,> 100 µM,–,> 100 µM,–,> 100 µM,–,> 100 µM
Cc1cc(I)cc(CN(C)CCCN2CCCC2)c1O,16.2 µM,32.2 µM,13.1 µM,26 µM,46.1 µM,> 100 µM,27.6 µM,> 80.4 µM,19.5 µM,44.7 µM,16100 nM,39.1 µM,19.4 µM,49.5 µM,7.52 µM,36.6 µM,16.9 µM,38.4 µM,30 µM,> 100 µM
COC(=O)C(/C(=N\O)C(=O)Nc1cccc(Cl)c1C)c1cnc2ccccc2n1 (stereo not given),–,> 100 µM,–,> 100 µM,–,> 100 µM,–,> 100 µM,–,> 100 µM,–,> 100 µM,–,> 100 µM,–,> 100 µM,–,> 100 µM,–,> 100 µM
O=S(=O)(CCCl)c1ccc(Cl)cc1,2.9 µM,13.2 µM,6.27 µM,20.4 µM,4.46 µM,16.9 µM,13.2 µM,41.1 µM,2.41 µM,7.44 µM,3000 nM,> 100 µM,10.1 µM,27.5 µM,3.41 µM,> 100 µM,6.4 µM,24 µM,4.79 µM,20.6 µM
O=c1c(F)cn(Cc2ccccc2CCl)c(=O)n1Cc1ccccc1CCl,1.71 µM,3.58 µM,1.65 µM,3.44 µM,2.75 µM,10.4 µM,3.5 µM,13.3 µM,1.33 µM,2.99 µM,1770 nM,4.69 µM,1.55 µM,3.49 µM,0.796 µM,3.07 µM,2.08 µM,4.9 µM,2.42 µM,7.05 µM
Cn1cc(C2=C(c3cn(C4CCN(Cc5ccccn5)CC4)c4ccccc34)C(=O)NC2=O)c2ccccc21,> 21.6 µM,> 100 µM,2.94 µM,> 25.9 µM,> 100 µM,> 100 µM,> 70.2 µM,> 100 µM,9.7 µM,> 100 µM,3520 nM,> 100 µM,3.74 µM,> 100 µM,3.19 µM,> 100 µM,4.92 µM,> 100 µM,6.31 µM,> 100 µM
O=[N+]([O-])c1ccc(Sc2c3ccccc3nc3cc(Cl)ccc23)cc1,> 100 µM,> 100 µM,> 100 µM,> 100 µM,> 100 µM,> 100 µM,> 100 µM,> 100 µM,> 100 µM,> 100 µM,–,> 100 µM,> 100 µM,> 100 µM,–,68.1 µM,> 100 µM,> 100 µM,> 100 µM,> 100 µM
CCC1=CC2CN(C1)Cc1c([nH]c3ccccc13)[C@@](C(=O)OC)(c1cc3c(cc1OC)N(C)[C@H]1[C@@](O)(C(=O)OC)[C@H](OC(C)=O)[C@]4(CC)C=CCN5CC[C@]31[C@@H]54)C2 (stereo not given in full),7.86 µM and 6.85 µM,50 µM and > 100 µM,0.00873 µM,0.501 µM and 0.208 µM,0.0118 µM and 0.0186 µM,50 µM and > 100 µM,0.0238 µM,> 100 µM,–,–,10.5 nM,11.1 µM and 13.9 µM,< 0.005 µM,6.71 µM and 21 µM,< 0.005 µM,9.27 µM,0.00735 µM,–,0.0176 µM and 0.0134 µM,50 µM and > 100 µM
O=S(=O)(NCCCNc1nccc(-c2c(-c3ccc(F)cc3)nc3sccn23)n1)c1ccc2ccccc2c1,5.47 µM,> 100 µM,4.17 µM,> 100 µM,4.69 µM,> 100 µM,8.53 µM,> 100 µM,5.37 µM,> 100 µM,4520 nM,> 100 µM,4.87 µM,> 100 µM,4.01 µM,> 100 µM,3.74 µM,> 100 µM,15.1 µM,> 100 µM
